This passage reports IC50 results from patent US20090105218A1, “CRTH2 Receptor Ligands For Therapeutic Use” (7TM PHARMA A/S, priority 2004, published 2009).

The structures appear in SMILES notation. Where only a bound is given, the exact number is not on record here.

A word on the IC50: it is the concentration needed to halve the response being measured. Low values mean inhibition by little substance, high ones a need for much substance.

The target in the experiment is T1, human CRTH2 receptor (Homo sapiens, UniProt Q9Y5Y4, V204A).
T1 construct: expressed in transfected cells; host or cells: COS-7 (transient transfection)
T1 sequence (Q9Y5Y4 1-395 V204A): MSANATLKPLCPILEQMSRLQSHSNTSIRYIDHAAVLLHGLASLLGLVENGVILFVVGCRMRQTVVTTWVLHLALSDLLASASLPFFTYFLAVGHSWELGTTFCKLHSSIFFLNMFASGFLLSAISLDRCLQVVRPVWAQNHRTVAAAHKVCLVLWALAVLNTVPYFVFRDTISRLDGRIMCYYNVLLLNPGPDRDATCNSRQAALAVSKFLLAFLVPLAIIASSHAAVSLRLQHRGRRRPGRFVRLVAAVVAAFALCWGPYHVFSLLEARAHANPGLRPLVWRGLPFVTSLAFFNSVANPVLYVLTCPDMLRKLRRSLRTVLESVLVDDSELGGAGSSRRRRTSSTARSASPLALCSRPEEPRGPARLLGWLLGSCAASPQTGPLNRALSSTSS
The experiment can be described thus: CRTH2 receptor binding assay ([3H]PGD2 competition on whole transfected cells). The conditions noted are these: competition binding with 0.1 nM [3H]PGD2, whole cells expressing CRTH2, 3 h at 4° C. The text has this:
Generation/origin of the cDNA Constructs. The coding sequence of the human CRTH2 receptor (genbank accession no NM_004778) was amplified by PCR from a human hippocampus cDNA library and inserted into the pcDNA3.1(+) expression vector (invitrogen) via 5′ HindIII and 3′ EcoRI. The sequence identity of the construct was verified by restriction endonuclease digests and sequencing in both directions on an ABI Prism (Applied Biosystems, Foster City, Calif.).
Cell Culture and Transfection. COS-7 cells were grown in Dulbecco's modified Eagle's medium (DMEM) 1885 supplemented with 10% fetal bovine serum, 100 units/ml penicillin, […] streptomycin, and kept at 37° C. in a 10% CO2 atmosphere. HEK293 cells were maintained in Minimum Essential medium (MEM) supplemented with 10% (v/v) heat inactivated fetal calf serum (HIFCS), 2 mM Glutamax™-I, 1% non essential amino acids (NEAA), 1% sodium pyruvate and 10 μg/ml gentamicin. For binding experiments, COS7 cells were transiently transfected with the CRTH2 receptor using a calcium phosphate-DNA coprecipitation method with the addition of chloroquine (as described by Holst B, Hastrup H, Raffetseder U, Martini L, Schwartz T W. J Biol. Chem. 2001 Jun. 8; 276(23):19793-9.)
Binding assay. 24 h after transfection COS-7 cells were seeded into 96 well plates at a density of 30.000 cells/well. Competition binding experiments on whole cells were then performed about 18-24 h later using 0.1 nM [^3H]PGD2 (NEN, 172 Ci/mmol) in a binding buffer consisting of HBSS (GIBCO) and 10 mM HEPES. Competing ligands were diluted in DMSO which was kept constant at 1% (v/v) of the final incubation volume. Total and nonspecific binding were determined in the absence and presence of 10 μM PGD2. Binding reactions were routinely conducted for 3 h at 4° C. and terminated by 2 washes (100 μl each) with ice cold binding buffer. Radioactivity was determined by liquid scintillation counting in a TOPCOUNTER (Packard) following over night incubation in Microscint 20. Stable HEK293 cells were seeded at a density of 30.000 cells/well 18-24 h prior to the binding assay which was performed essentially as described for COS7 cells above. Determinations were made in duplicates.
Curve analysis was performed with the GraphPadPrism software 3.0 (Graphpad Prism Inc., San Diego, USA) and IC50 values were calculated as a measure of the antagonistic potencies.
In turn, `O=C(Nc1cccc(C(=O)Nc2ccccc2C(=O)O)c1)c1ccc(I)cc1` [B43] had an IC50 of under 500 nM. The same measure for `O=C(Nc1ccccc1C(=O)O)c1cccc(S(=O)(=O)Nc2ccccc2)c1` [B47]: 500 to 5000 nM; for `O=C(Nc1ccccc1C(=O)O)c1cccc(S(=O)(=O)NC2CCCCC2)c1` [B66]: 500 to 5000 nM. The same measure for `O=C(Nc1ccc(Br)cc1C(=O)O)c1cccc(S(=O)(=O)Nc2ccc(I)cc2)c1` [B17, 5-Bromo-2-[3-(4-iodophenylsulfamoyl)benzoylamino]benzoic acid]: under 500 nM; for `O=C(Nc1ccccc1C(=O)O)c1cccc(S(=O)(=O)Nc2ccc(Br)cc2)c1` [B55]: under 500 nM; for `O=C(Nc1ccc(Cl)cc1C(=O)O)c1cccc(S(=O)(=O)Nc2ccc(F)cc2)c1` [B31, 5-Chloro-2-[3-(4-fluorophenylsulfamoyl)benzoylamino]benzoic acid]: under 500 nM.

`COc1cc(C(=O)Nc2cccc(C(=O)Nc3ccccc3C(=O)O)c2)cc(OC)c1OC` [B34] returned a concentration for half-maximal inhibition (IC50) of 500 to 5000 nM. Take `O=C(Nc1ccccc1C(=O)O)c1cc(S(=O)(=O)Nc2ccc(Br)cc2)ccc1Cl` [B58]: the half-maximal inhibitory concentration (IC50) lay within 500 to 5000 nM. With `O=C(Nc1ccccc1C(=O)O)c1ccc(Br)c(S(=O)(=O)Nc2ccc(OC(F)(F)F)cc2)c1` [B19, 2-[4-Bromo-3-(4-trifluoromethoxyphenylsulfamoyl)benzoylamino]benzoic acid] the figure was under 500 nM.

With `O=C(Nc1ccc(C(=O)Nc2ccccc2C(=O)O)cc1)c1ccc(Br)cc1` [B45], the 50% inhibitory concentration (IC50) was 500 to 5000 nM.

For `O=C(Nc1ccc(Br)cc1C(=O)O)c1cccc(S(=O)(=O)Nc2cccc(Oc3ccccc3)c2)c1` [B16, 5-Bromo-2-[3-(3-phenoxyphenylsulfamoyl)benzoylamino]benzoic acid], the IC50 was under 500 nM.

`O=C(Nc1ccccc1C(=O)O)c1ccc(Br)c(S(=O)(=O)Nc2ccc(I)cc2)c1` [B23, 2-[4-Bromo-3-(4-iodophenylsulfamoyl)benzoylamino]benzoic acid]: the half-maximal inhibitory concentration (IC50) was under 500 nM. With `O=C(Nc1ccccc1C(=O)O)c1cc(S(=O)(=O)N2CCOCC2)ccc1Cl` [B67] the figure was over 5000 nM. The same measure for `Cc1ccc(OCC(=O)Nc2cccc(C(=O)Nc3ccccc3C(=O)O)c2)cc1C` [B32]: under 500 nM; for `CCCOc1cccc(C(=O)Nc2cccc(C(=O)Nc3ccccc3C(=O)O)c2)c1` [B41]: under 500 nM; for `O=C(Nc1ccccc1C(=O)O)c1cc(S(=O)(=O)N2CCCCCC2)ccc1Cl` [B77]: 500 to 5000 nM.

`Cc1c(S(=O)(=O)Nc2ccc(Br)cc2)csc1C(=O)Nc1ccc(Br)cc1C(=O)O` [B27, 5-Bromo-2-[4-(4-bromophenylsulfamoyl)-3-methylthiophene-2-carbonylamino]benzoic acid] registered a half-maximal inhibitory concentration (IC50) of under 500 nM. With `O=C(COc1ccc(Cl)cc1)Nc1cccc(C(=O)Nc2ccccc2C(=O)O)c1` [B1, 2-{3-[2-(4-Chlorophenoxy)acetylamino]benzoylamino}benzoic acid] the figure was under 500 nM; with `O=C(Nc1ccccc1C(=O)O)c1cc(S(=O)(=O)N2CCCC2)ccc1Cl` [B79], 500 to 5000 nM; with `Cc1ccc(C(=O)Nc2ccccc2C(=O)O)cc1S(=O)(=O)Nc1cccc(Cl)c1` [B62], under 500 nM. As to `O=C(/C=C/c1ccc(OC(F)(F)F)cc1)Nc1cccc(C(=O)Nc2ccccc2C(=O)O)c1` [B2, 2-{3-[(E)-3-(4-Trifluoromethoxyphenyl)acryloylamino]benzoylamino}benzoic acid], the concentration for half-maximal inhibition (IC50) was under 500 nM. With `Cc1c(S(=O)(=O)Nc2cccc(Oc3ccccc3)c2)csc1C(=O)Nc1ccccc1C(=O)O` [B22, 2-[3-Methyl-4-(3-phenoxyphenylsulfamoyl)thiophene-2-carbonylamino]-benzoic acid] the figure was 500 to 5000 nM; with `Cc1ccc(C(=O)Nc2ccccc2C(=O)O)cc1S(=O)(=O)N1CCOCC1` [B71], 500 to 5000 nM; with `Cc1ccc(C(=O)Nc2ccccc2C(=O)O)cc1S(=O)(=O)N1CCCCC1` [B72], under 500 nM.

As to `Cc1ccc(C(=O)Nc2ccccc2C(=O)O)cc1S(=O)(=O)NC1CCCCC1` [B73], the IC50 was 500 to 5000 nM. The same measure for `COc1ccc(OCC(=O)Nc2cccc(C(=O)Nc3ccccc3C(=O)O)c2)cc1` [B39]: 500 to 5000 nM. With `Cc1ccc(C(=O)Nc2ccccc2C(=O)O)cc1S(=O)(=O)Nc1ccc(F)cc1` [B63] the figure was 500 to 5000 nM. The same measure for `O=C(Cc1ccccc1)Nc1cccc(C(=O)Nc2ccccc2C(=O)O)c1` [B37]: 500 to 5000 nM. The compound `CCOc1ccc(NS(=O)(=O)c2cccc(C(=O)Nc3ccccc3C(=O)O)c2)cc1` [B61] registered an IC50 of 500 to 5000 nM. With `O=C(Nc1ccc(O)cc1C(=O)O)c1cccc(NC(=O)c2ccco2)c1` [B44] the figure was 500 to 5000 nM; with `O=C(COc1ccc(Cl)cc1)Nc1cc(C(=O)Nc2ccc(I)cc2C(=O)O)ccc1Cl` [B12, 2-{4-Chloro-3-[2-(4-chloro-phenoxy)acetylamino]benzoylamino}-5-iodobenzoic acid], 500 to 5000 nM. For the compound `COc1ccc(NS(=O)(=O)c2cccc(C(=O)Nc3ccccc3C(=O)O)c2)cc1` [B48], the IC50 fell in the range of 500 to 5000 nM. With `O=C(Nc1ccccc1C(=O)O)c1ccc(Br)c(S(=O)(=O)Nc2ccc(Br)cc2)c1` [B54] the figure was under 500 nM.
